From patent US9422292B2, “Bromodomain inhibitors and uses thereof” (Constellation Pharmaceuticals, Inc., priority 2011, dated 2016) come the findings set out here.

One test concerns the target T1, BRD4 (BD1) (Homo sapiens, UniProt O60885).
T1 construct: His; made in house
Description: BRD4 AlphaLisa binding assay. The following applies: BRD4 (BD1) 30 nM, biotinylated H4-tetraacetyl peptide 200 nM; read-out: BRD4 AlphaLisa. Summed up: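 BRD4 (BD1) (30 nM final) with peptide (200 nM final) in 40 mM HEPES pH 7.0, 40 mM NaCl, 1 mM DTT, 0.01% BSA, 0.008% Brij-35, 1.2% DMSO, 20 min at RT with compound.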
A general note: Bead proximity is the source of the signal in Alpha formats.

Test [1] deals with MYC mRNA in MV4:11 (AML) cells. Put plainly: cMyc RNA quantification assay (QuantiGene) in MV4:11 cells. The following applies: Homo sapiens, 4 h, QuantiGene 2.0. It counts as cell-based. Summed up: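 Cells exposed to a range of compound concentrations for 4 h, then MYC mRNA quantified by QuantiGene 2.0 branched-DNA assay. Biological duplicates averaged and normalized to DMSO vehicle, expressed as percent MYC mRNA.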

The test system of test [2] is IL-6 secretion in THP-1 cells. Put plainly: Cell-based IL-6 quantification assay (ELISA, Mesoscale) in LPS-treated THP-1 cells. The note with it: Homo sapiens, LPS 4 μg/mL, 16 h, ELISA value/CellTiter-Glo ratio. Summed up:
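THP-1 cells (100,000/well, RPMI-10% FBS) stimulated with 4 μg/mL LPS and incubated 16 h with compound at various concentrations. Supernatant IL-6 measured by Mesoscale ELISA, normalized to CellTiter-Glo cell content; % inhibition of secretion from the ratio.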
Background: An ELISA detects its analyte on a solid surface through an enzyme-linked reagent.

For the compound `Cc1nnc2n1-c1ccc(-c3cnc(N)cn3)cc1N(c1ccc(C#N)cc1)C[C@@H]2C` [Compound 63], the IC50 is 100 to 1000 nM at BRD4 (BD1), 1000 to 10000 nM in test [1] and over 1000 nM in test [2].
Taken in the same sequence, the figures for `Cc1nnc2n1-c1ccc(-c3cn(C)nn3)cc1N(c1ccc(Cl)cc1)C[C@H]2C` [Compound 64, 4H-[1,2,4]Triazolo[4,3-a][1,5]benzodiazepine, 5,6-dihydro-1,4-dimethyl-8-(1-methyl-2H-1,2,3-triazole-4-yl)-6-(4-chloro-phenyl)] were under 100 nM, under 100 nM and under 100 nM.
Take `Cc1ncnn1-c1ccc2c(c1)N(c1ccc(Cl)cc1)C[C@@H](C)c1nnc(C)n1-2` [Compound 65, (R)-6-(4-chlorophenyl)-1,4-dimethyl-8-(5-methyl-1H-1,2,4-triazol-1-yl)-5,6-dihydro-4H-benzo[b][1,2,4]triazolo[4,3-d][1,4]diazepine]: the IC50 on BRD4 (BD1) lay within 100 to 1000 nM; in test [1], 1000 to 10000 nM; in test [2], 100 to 1000 nM.
Regarding `Cc1ncn(-c2ccc3c(c2)N(c2ccc(Cl)cc2)C[C@@H](C)c2nnc(C)n2-3)n1` [Compound 66, (R)-6-(4-chlorophenyl)-1,4-dimethyl-8-(3-methyl-1H-1,2,4-triazol-1-yl)-5,6-dihydro-4H-benzo[b][1,2,4]triazolo[4,3-d][1,4]diazepine], the IC50 (on BRD4 (BD1); in test [1]; in test [2]) was under 100 nM each time.
In the case of `Cc1nnc2n1-c1ccc(-c3ccc(=O)[nH]c3)cc1N(c1ccc(C#N)cc1)C[C@H]2C` [Compound 68, (R)-4-(1,4-dimethyl-8-(6-oxo-1,6-dihydropyridin-3-yl)-4H-benzo[b][1,2,4]triazolo[4,3-d][1,4]diazepin-6(5H)-yl)benzonitrile], the IC50 is under 100 nM on BRD4 (BD1), 1000 to 10000 nM in test [1] and 1000 to 10000 nM in test [2].
In the case of `Cc1nnc2n1-c1ccc(-c3ccc(N)nc3)cc1N(c1ccc(N)nc1)C[C@H]2C` [Compound 71, (R)-5,5′-(1,4-dimethyl-4H-benzo[b][1,2,4]triazolo[4,3-d][1,4]diazepine-6,8(5H)-diyl)dipyridin-2-amine], the results for the IC50 (on BRD4 (BD1); in test [1]; in test [2]) were under 100 nM, 1000 to 10000 nM and 1000 to 10000 nM, respectively.
Regarding `Cc1nnc2n1-c1ccc(-c3cnn(C)n3)cc1N(c1ccc(S(C)(=O)=O)cc1)C[C@@H]2C` [Compound 72, (R)-4H-[1,2,4]Triazolo[4,3-a][1,5]benzodiazepine, 5,6-dihydro-1,4-dimethyl-8-(2-methyl-2H-1,2,3-triazole-4-yl)-6-(4-methylsulfonyl-phenyl)], the IC50 on BRD4 (BD1) was 100 to 1000 nM; in test [1], 1000 to 10000 nM; in test [2], over 1000 nM.
Turning to `Cc1nnc2n1-c1ccc(-c3cnn(C)n3)cc1N(c1ccc(S(C)(=O)=O)cc1)C[C@H]2C` [Compound 73, (S)-4H-[1,2,4]Triazolo[4,3-a][1,5]benzodiazepine, 5,6-dihydro-1,4-dimethyl-8-(2-methyl-2H-1,2,3-triazole-4-yl)-6-(4-methylsulfonyl-phenyl)], the IC50 is under 100 nM on BRD4 (BD1), 100 to 1000 nM in test [1] and 100 to 1000 nM in test [2].
As to `Cc1nnc2n1-c1ccc(-c3cnn(C)n3)cc1N(c1ccc(C#N)cc1)C[C@H]2C` [Compound 75, (S)-4H-[1,2,4]Triazolo[4,3-a][1,5]benzodiazepine, 5,6-dihydro-1,4-dimethyl-8-(2-methyl-2H-1,2,3-triazole-4-yl)-6-(4-cyano-phenyl)], the IC50 (on BRD4 (BD1); in test [1]; in test [2]) was under 100 nM throughout.
Take `Cc1nnc2n1-c1ccc(Br)cc1N(c1ccc(S(C)(=O)=O)cc1)C[C@H]2C` [Compound 77, (R)-8-bromo-1,4-dimethyl-6-(4-(methylsulfonyl)phenyl)-5,6-dihydro-4H-benzo[b][1,2,4]triazolo[4,3-d][1,4]diazepine]: the IC50 on BRD4 (BD1) was 1000 to 10000 nM; in test [1], 1000 to 10000 nM; in test [2], over 1000 nM.
Turning to `Cc1nnc2n1-c1ccc(-c3cn[nH]c3)cc1N(c1ccc(C#N)cc1)C[C@H]2C` [Compound 80, (R)-4-(1,4-dimethyl-8-(1H-pyrazol-4-yl)-4H-benzo[b][1,2,4]triazolo[4,3-d][1,4]diazepin-6(5H)-yl)benzonitrile], the IC50 (on BRD4 (BD1); in test [1]; in test [2]) was under 100 nM throughout.
As to `Cc1nnc2n1-c1ccc(-c3cnn(CC(N)=O)c3)cc1N(c1ccc(C#N)cc1)C[C@H]2C` [Compound 81, (R)-2-(4-(6-(4-cyanophenyl)-1,4-dimethyl-5,6-dihydro-4H-benzo[b][1,2,4]triazolo[4,3-d][1,4]diazepin-8-yl)-1H-pyrazol-1-yl)acetamide], the IC50 at BRD4 (BD1) was under 100 nM; in test [1] it was 1000 to 10000 nM; in test [2], over 1000 nM.
In the same order, the values of `Cc1nnc2n1-c1ccc(-c3ccc(=O)[nH]c3)cc1N(c1ccc(Cl)cn1)C[C@H]2C` [Compound 82, (R)-5-(6-(5-chloropyridin-2-yl)-1,4-dimethyl-5,6-dihydro-4H-benzo[b][1,2,4]triazolo[4,3-d][1,4]diazepin-8-yl)pyridin-2(1H)-one] are 100 to 1000 nM, 100 to 1000 nM and over 1000 nM.
Taken in the same sequence, the figures for `Cc1nnc2n1-c1ccc(-c3cnc(N)cn3)cc1N(c1ccc(Cl)cn1)C[C@H]2C` [Compound 83, (R)-5-(6-(5-chloropyridin-2-yl)-1,4-dimethyl-5,6-dihydro-4H-benzo[b][1,2,4]triazolo[4,3-d][1,4]diazepin-8-yl)pyrazin-2-amine] were under 100 nM, under 100 nM and under 100 nM.
Take `COc1ccc2c(n1)N(c1ccc(C#N)cc1)CC(C)c1nnc(C)n1-2` (stereo not drawn) [Compound 84, 4-(8-methoxy-1,4-dimethyl-4H-pyrido[2,3-b][1,2,4]triazolo[4,3-d][1,4]diazepin-6(5H)-yl)benzonitrile]: the IC50 is over 500 nM at BRD4 (BD1), 1000 to 10000 nM in test [1] and over 1000 nM in test [2].
As for `Cc1[nH]c(=O)ccc1-c1ccc2c(c1)N(c1ccc(Cl)cc1)C[C@@H](C)c1nnc(C)n1-2` [Compound 85, (R)-5-(6-(4-chlorophenyl)-1,4-dimethyl-5,6-dihydro-4H-benzo[b][1,2,4]triazolo[4,3-d][1,4]diazepin-8-yl)-6-methylpyridin-2(1H)-one], the IC50 at BRD4 (BD1) is 100 to 1000 nM; in test [1], 100 to 1000 nM; in test [2], over 1000 nM.
